Experimental data taken from ChEMBL document CHEMBL1154544, “Antitumour polyether macrolides: four new halichondrins from the New Zealand deep-water marine sponge Lissodendoryx sp” (Bioorg Med Chem, 2009).
Values after ≈ are worked out from the molar mass of the structure shown.

Tested on: P388
Assay: Cytotoxicity against mouse P388 cells
Assay type: functional, cell-based

Row | SMILES | IC50 [ng/mL]
1 | C=C1C[C@@H]2CC[C@@]34C[C@H]5O[C@H]6[C@@H](O3)[C@H]3O[C@H](CC[C@@H]3O[C@H]6[C@H]5O4)CC(=O)O[C@@H]3[C@@H](C)[C@@H]4O[C@@H]5C[C@]6(C[C@@H]7O[C@]8(C[C@H](C)[C@@H]9O[C@@H]%10CC(C(O)CO)O[C@@H]%10C[C@@H]9O8)C[C@H](C)[C@@H]7O6)O[C@@H]5C[C@@H]4O[C@H]3C[C@H]3O[C@@H](CC[C@@H]1O2)C[C@@H](C)C3=C (some centres not stated) [HOMOHALICHONDRIN B] | 0.22 (≈ 0.196 nM)
2 | C=C1C[C@@H]2CC[C@@]34C[C@H]5O[C@H]6[C@@H](O3)[C@H]3O[C@H](CC[C@@H]3O[C@H]6[C@H]5O4)CC(=O)O[C@@H]3[C@@H](C)[C@@H]4O[C@@H]5C[C@]6(C[C@@H]7O[C@]8(C[C@H](C)[C@@H]9O[C@@H]%10CC(=O)O[C@@H]%10C[C@@H]9O8)C[C@H](C)[C@@H]7O6)O[C@@H]5C[C@@H]4O[C@H]3C[C@H]3O[C@@H](CC[C@@H]1O2)C[C@@H](C)C3=C | 1.1 (≈ 1.02 nM)
3 | C=C1C[C@@H]2CC[C@@]34C[C@H]5O[C@H]6[C@@H](O3)[C@H]3O[C@H](CC[C@@H]3O[C@H]6[C@H]5O4)CC(=O)O[C@@H]3[C@@H](C)[C@@H]4O[C@@H]5C[C@]6(C[C@@H]7O[C@]8(C[C@H](C)[C@@H]9O[C@H](CC(C)=O)[C@H](O)C[C@@H]9O8)C[C@H](C)[C@@H]7O6)O[C@@H]5C[C@@H]4O[C@H]3C[C@H]3O[C@@H](CC[C@@H]1O2)C[C@@H](C)C3=C | 0.76 (≈ 0.695 nM)
4 | C=C1C[C@@H]2CC[C@@]34C[C@H]5O[C@H]6[C@@H](O3)[C@H]3O[C@H](CC[C@@H]3O[C@H]6[C@H]5O4)CC(=O)O[C@@H]3[C@@H](C)[C@@H]4O[C@@H]5C[C@]6(C[C@@H]7O[C@]8(C[C@H](C)[C@@H]9O[C@H](CC(=O)CCO)[C@H](O)C[C@@H]9O8)C[C@H](C)[C@@H]7O6)O[C@@H]5C[C@@H]4O[C@H]3C[C@H]3O[C@@H](CC[C@@H]1O2)C[C@@H](C)C3=C [ISOHOMOHALICHONDRIN B] | 0.18 (≈ 0.16 nM)
5 | C=C1C[C@@H]2CC[C@@]34C[C@H]5O[C@H]6[C@@H](O3)[C@H]3O[C@H](CC[C@@H]3O[C@H]6[C@H]5O4)CC(=O)O[C@@H]3[C@@H](C)[C@@H]4O[C@@H]5C[C@]6(C[C@@H]7O[C@]8(C[C@H](C)[C@@H]9O[C@H]([C@@H](O)C[C@@H](O)CO)C[C@@H]9O8)C[C@H](C)[C@@H]7O6)O[C@@H]5C[C@@H]4O[C@H]3C[C@H]3O[C@@H](CC[C@@H]1O2)C[C@@H](C)C3=C [HALICHONDRIN B] | 0.78 (≈ 0.702 nM)
6 | C=C1C[C@@H]2CC[C@@]34C[C@H]5O[C@H]6[C@@H](O3)[C@H]3O[C@H](CC[C@@H]3O[C@H]6[C@H]5O4)CC(=O)O[C@@H]3[C@@H](C)[C@@H]4O[C@@H]5C[C@]6(C[C@@H]7O[C@]8(C[C@H](C)[C@@H]9OC(=O)C[C@@H]9O8)C[C@H](C)[C@@H]7O6)O[C@@H]5C[C@@H]4O[C@H]3C[C@H]3O[C@@H](CC[C@@H]1O2)C[C@@H](C)C3=C | 1.1 (≈ 1.08 nM)
7 | C=C1C[C@@H]2CC[C@@]34C[C@H]5O[C@H]6[C@@H](O3)[C@H]3O[C@H](CC[C@@H]3O[C@H]6[C@H]5O4)CC(=O)O[C@@H]3[C@@H](C)[C@@H]4O[C@@H]5C[C@]6(C[C@@H]7O[C@]8(C[C@H](C)[C@@H]9O[C@@H]%10CC(C(O)CCl)O[C@@H]%10C[C@@H]9O8)C[C@H](C)[C@@H]7O6)O[C@@H]5C[C@@H]4O[C@H]3C[C@H]3O[C@@H](CC[C@@H]1O2)C[C@@H](C)C3=C (some centres not stated) | 2 (≈ 1.75 nM)
